Laboratory results taken from patent US10072001B2, “Tank-binding kinase inhibitor compounds” (Gilead Sciences, Inc., priority 2014, dated 2018).

What was measured:
IKKε = IKKε (Homo sapiens (Human), UniProt Q14164); test: TR-FRET kinase assay, IKKε; type: biochemical; conditions: full length recombinant IKKε 0.3 nM, 2x Km ATP, 1 μM peptide, 240 min at 25° C.; geometric mean of minimum four determinations
Text: Biological Assay for TBK1 and IKKs:

TBK1 = TBK1 (Homo sapiens (Human), UniProt Q9UHD2); test: TR-FRET kinase assay, TBK1; conditions: read-out: TBK1-IC50; full length recombinant TBK1 2.5 nM, 2x Km ATP, 1 μM peptide, 240 min at 25° C.; geometric mean of minimum four determinations
TBK1, sequence (Q9UHD2 whole entry): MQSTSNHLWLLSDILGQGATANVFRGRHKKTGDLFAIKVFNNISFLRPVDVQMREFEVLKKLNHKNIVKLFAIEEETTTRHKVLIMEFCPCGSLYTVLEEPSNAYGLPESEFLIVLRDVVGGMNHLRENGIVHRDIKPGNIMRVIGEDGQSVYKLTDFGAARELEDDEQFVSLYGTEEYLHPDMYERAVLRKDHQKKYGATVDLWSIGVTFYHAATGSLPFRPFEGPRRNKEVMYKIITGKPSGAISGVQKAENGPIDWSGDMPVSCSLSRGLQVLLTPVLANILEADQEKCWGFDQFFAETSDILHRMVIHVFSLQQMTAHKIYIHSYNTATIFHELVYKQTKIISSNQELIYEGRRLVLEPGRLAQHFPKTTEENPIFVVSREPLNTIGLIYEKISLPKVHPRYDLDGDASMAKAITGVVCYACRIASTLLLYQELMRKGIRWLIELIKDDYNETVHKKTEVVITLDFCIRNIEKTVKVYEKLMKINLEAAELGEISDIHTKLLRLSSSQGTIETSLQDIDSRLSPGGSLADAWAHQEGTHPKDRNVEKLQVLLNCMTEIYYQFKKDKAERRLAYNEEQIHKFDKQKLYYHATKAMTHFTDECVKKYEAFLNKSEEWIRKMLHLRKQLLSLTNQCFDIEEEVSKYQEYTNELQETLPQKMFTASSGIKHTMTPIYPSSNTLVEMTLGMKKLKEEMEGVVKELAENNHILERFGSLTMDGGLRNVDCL
Procedure: Enzymatic activity of IKKε and TBK1 was measured using a homogeneous time resolved fluorescence resonance energy transfer (TR-FRET) assay that monitors enzyme dependent phosphorylation of a biotinylated serine/threonine peptide substrate. […] TBK1 and IKKs were expressed and purified as full length recombinant proteins. Detection reagents for the assay were purchased from Cisbio. […] After an assay reaction time of 240 minutes at 25° C., reactions were terminated with EDTA.
Amount of phosphorylated peptide was determined by the addition of 125 nM streptavidin XL665 and europium cryptate labeled anti-phospho monoclonal antibody and the resulting TR-FRET signal was recorded on an Envision plate reader (Ex: 340 nm; Em: 615/665 nm; 100 μs delay and 200 μs read window). […] All IC50 values represent geometric mean values of a minimum of four determinations.

IKKε, sequence (Q14164 whole entry): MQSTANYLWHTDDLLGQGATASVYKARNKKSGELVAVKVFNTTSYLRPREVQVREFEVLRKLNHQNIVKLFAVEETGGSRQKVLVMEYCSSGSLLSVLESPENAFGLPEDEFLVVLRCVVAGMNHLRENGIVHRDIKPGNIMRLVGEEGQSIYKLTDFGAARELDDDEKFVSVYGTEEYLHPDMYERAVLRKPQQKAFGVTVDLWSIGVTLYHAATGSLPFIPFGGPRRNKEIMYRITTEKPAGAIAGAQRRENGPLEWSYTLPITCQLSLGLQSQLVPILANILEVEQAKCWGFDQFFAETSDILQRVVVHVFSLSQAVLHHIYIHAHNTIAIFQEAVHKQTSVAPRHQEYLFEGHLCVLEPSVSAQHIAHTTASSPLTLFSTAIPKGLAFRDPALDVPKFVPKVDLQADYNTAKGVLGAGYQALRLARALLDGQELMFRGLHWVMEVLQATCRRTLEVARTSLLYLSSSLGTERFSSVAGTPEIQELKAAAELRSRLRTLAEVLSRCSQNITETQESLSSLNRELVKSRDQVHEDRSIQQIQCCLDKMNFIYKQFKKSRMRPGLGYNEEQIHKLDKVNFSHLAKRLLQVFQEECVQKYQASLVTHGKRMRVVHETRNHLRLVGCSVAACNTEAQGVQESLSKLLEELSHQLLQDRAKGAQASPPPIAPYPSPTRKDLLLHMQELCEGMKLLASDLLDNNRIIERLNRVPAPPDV

Row | Compound | IC50 (IKKε) | IC50 (TBK1)
1 | N#Cc1cc(-c2ncnc3[nH]c(-c4ccc(N5CCOCC5)cc4)cc23)ccc1N1CC(O)C1 [Example 199, 2-(3-hydroxyazetidin-1-yl)-5-(6-(4-morpholinophenyl)-7H-pyrrolo[2,3-d]pyrimidin-4-yl)benzonitrile] | 1000 nM | 2.15 nM
2 | N#Cc1cc(-c2ncnc3[nH]c(-c4ccc(N5CCOCC5)cc4)nc23)ccc1OC1CCOCC1 [Example 201, 5-(8-(4-morpholinophenyl)-9H-purin-6-yl)-2-((tetrahydro-2H-pyran-4-yl)oxy)benzonitrile] | 19.7 nM | 3 nM
3 | N#Cc1cc(-c2ncnc3[nH]c(-c4ccc(N5CCOCC5)cc4)nc23)ccc1OCC1CC1 [Example 202, 2-(cyclopropylmethoxy)-5-(8-(4-morpholinophenyl)-9H-purin-6-yl)benzonitrile] | > 1000 nM | > 1000 nM
4 | CC(C)(C)OC(=O)N1CCC(Oc2ccc(-c3ncnc4[nH]c(-c5ccc(N6CCOCC6)cc5)nc34)cc2C#N)CC1 [Example 203, tert-butyl 4-(2-cyano-4-(8-(4-morpholinophenyl)-9H-purin-6-yl)phenoxy)piperidine-1-carboxylate] | > 1000 nM | > 1000 nM
5 | N#Cc1cc(-c2ncnc3[nH]c(-c4ccc(N5CCOCC5)cc4)nc23)ccc1OC1CCNCC1 [Example 204, 5-(8-(4-morpholinophenyl)-9H-purin-6-yl)-2-(piperidin-4-yloxy)benzonitrile] | 83.7 nM | 36.8 nM
6 | CC(C)(C)OC(=O)N1CC[C@@H](Oc2ccc(-c3ncnc4[nH]c(-c5ccc(N6CCOCC6)cc5)nc34)cc2C#N)C1 [Example 206, (R)-tert-butyl 3-(2-cyano-4-(8-(4-morpholinophenyl)-9H-purin-6-yl)phenoxy)pyrrolidine-1-carboxylate] | > 1000 nM | > 1000 nM
7 | N#Cc1cc(-c2ncnc3[nH]c(-c4ccc(N5CCOCC5)cc4)nc23)ccc1O[C@@H]1CCNC1 [Example 207, (R)-5-(8-(4-morpholinophenyl)-9H-purin-6-yl)-2-(pyrrolidin-3-yloxy)benzonitrile] | 113 nM | 15.8 nM
8 | C[C@H](O)C(=O)N1CC[C@@H](Oc2ccc(-c3ncnc4[nH]c(-c5ccc(N6CCOCC6)cc5)nc34)cc2C#N)C1 [Example 210, 2-(((R)-1-((S)-2-hydroxypropanoyl)pyrrolidin-3-yl)oxy)-5-(8-(4-morpholinophenyl)-9H-purin-6-yl)benzonitrile] | > 875 nM | 38.9 nM
9 | N#Cc1cc(-c2ncnc3[nH]c(-c4cccc(N5CCOCC5)c4)nc23)ccc1OC1CCOCC1 [Example 211, 5-(8-(3-morpholinophenyl)-9H-purin-6-yl)-2-((tetrahydro-2H-pyran-4-yl)oxy)benzonitrile] | 25.3 nM | 9.57 nM
10 | CN1CCN(c2ccc(-c3nc4c(-c5ccc(OC6CCOCC6)c(C#N)c5)ncnc4[nH]3)cc2)CC1 [Example 212, 5-(8-(4-(4-methylpiperazin-1-yl)phenyl)-9H-purin-6-yl)-2-((tetrahydro-2H-pyran-4-yl)oxy)benzonitrile] | 1.08 nM | 1.14 nM
11 | Cn1cc(-c2nc3c(-c4ccc(OC5CCOCC5)c(C#N)c4)ncnc3[nH]2)cn1 [Example 213, 5-(8-(1-methyl-1H-pyrazol-4-yl)-9H-purin-6-yl)-2-((tetrahydro-2H-pyran-4-yl)oxy)benzonitrile] | 30.2 nM | 12.4 nM
12 | Cc1noc(C)c1-c1cc2c(-c3ccc(OC4CCOCC4)c(C#N)c3)ccnc2[nH]1 [Example 216, 5-(2-(3,5-dimethylisoxazol-4-yl)-1H-pyrrolo[2,3-b]pyridin-4-yl)-2-((tetrahydro-2H-pyran-4-yl)oxy)benzonitrile] | 121 nM | 67.6 nM
13 | N#Cc1cc(-c2ncnc3[nH]c(-c4ccc(N5CCOCC5)cc4)cc23)ccc1OC1CCNCC1 [Example 218, 5-(6-(4-morpholinophenyl)-7H-pyrrolo[2,3-d]pyrimidin-4-yl)-2-(piperidin-4-yloxy)benzonitrile] | 140 nM | 31.1 nM
14 | O=C1NCc2cc(-c3ncnc4[nH]c(-c5ccc(N6CCOCC6)cc5)cc34)ccc21 [Example 221, 5-(6-(4-morpholinophenyl)-7H-pyrrolo[2,3-d]pyrimidin-4-yl)isoindolin-1-one] | 1000 nM | 1000 nM
15 | O=C1NCc2cc(-c3cc4c(-c5ccc6c(c5)CNC6=O)ncnc4[nH]3)ccc21 [Example 224, 5,5′-(7H-pyrrolo[2,3-d]pyrimidine-4,6-diyl)bis(isoindolin-1-one)] | 1000 nM | 1000 nM

Other lines, results leading:

Row | IC50 (IKKε) | IC50 (TBK1) | Compound
16 | 62.3 nM | 17.7 nM | N#Cc1cc(-c2ccnc3[nH]c(-c4ccc(N5CCOCC5)cc4)nc23)ccc1O[C@@H]1CCNC1 [Example 195, (R)-5-(2-(4-morpholinophenyl)-3H-imidazo[4,5-b]pyridin-7-yl)-2-(pyrrolidin-3-yloxy)benzonitrile]
17 | 12.7 nM | 4.5 nM | N#Cc1cc(-c2ccnc3[nH]c(-c4ccc(N5CCOCC5)cc4)nc23)ccc1O[C@@H]1CCN(C(=O)CO)C1 [Example 196, (R)-2-((1-(2-hydroxyacetyl)pyrrolidin-3-yl)oxy)-5-(2-(4-morpholinophenyl)-3H-imidazo[4,5-b]pyridin-7-yl)benzonitrile]
18 | 109 nM | 29.1 nM | N#Cc1cc(-c2ccnc3[nH]c(-c4ccc(N5CCOCC5)cc4)nc23)ccc1OC1CCNCC1 [Example 197, 5-(2-(4-morpholinophenyl)-3H-imidazo[4,5-b]pyridin-7-yl)-2-(piperidin-4-yloxy)benzonitrile]
19 | 3.42 nM | 2.3 nM | N#Cc1cc(-c2ccnc3[nH]c(-c4ccc(N5CCOCC5)cc4)nc23)ccc1OC1CCN(C(=O)CO)CC1 [Example 198, 2-((1-(2-hydroxyacetyl)piperidin-4-yl)oxy)-5-(2-(4-morpholinophenyl)-3H-imidazo[4,5-b]pyridin-7-yl)benzonitrile]
20 | 1.03 nM | 0.644 nM | N#Cc1cc(-c2ncnc3[nH]c(-c4ccc(N5CCNCC5)cc4)cc23)ccc1OC1CCOCC1 [Example 200, 5-(6-(4-(piperazin-1-yl)phenyl)-7H-pyrrolo[2,3-d]pyrimidin-4-yl)-2-((tetrahydro-2H-pyran-4-yl)oxy)benzonitrile]
21 | 4.71 nM | 2.07 nM | N#Cc1cc(-c2ncnc3[nH]c(-c4ccc(N5CCOCC5)cc4)nc23)ccc1OC1CCN(C(=O)CO)CC1 [Example 205, 2-((1-(2-hydroxyacetyl)piperidin-4-yl)oxy)-5-(8-(4-morpholinophenyl)-9H-purin-6-yl)benzonitrile]
22 | 7.58 nM | 1.68 nM | N#Cc1cc(-c2ncnc3[nH]c(-c4ccc(N5CCOCC5)cc4)nc23)ccc1O[C@@H]1CCN(C(=O)CO)C1 [Example 208, (R)-2-((1-(2-hydroxyacetyl)pyrrolidin-3-yl)oxy)-5-(8-(4-morpholinophenyl)-9H-purin-6-yl)benzonitrile]
23 | 58.7 nM | 13.1 nM | C[C@@H](O)C(=O)N1CC[C@@H](Oc2ccc(-c3ncnc4[nH]c(-c5ccc(N6CCOCC6)cc5)nc34)cc2C#N)C1 [Example 209, 2-(((R)-1-((R)-2-hydroxypropanoyl)pyrrolidin-3-yl)oxy)-5-(8-(4-morpholinophenyl)-9H-purin-6-yl)benzonitrile]
24 | 3.15 nM | 1.42 nM | CS(=O)(=O)N1CCN(c2ccc(-c3cc4c(-c5ccc(OC6CCOCC6)c(C#N)c5)ncnc4[nH]3)cc2)CC1 [Example 215, 5-(6-(4-(4-(methylsulfonyl)piperazin-1-yl)phenyl)-7H-pyrrolo[2,3-d]pyrimidin-4-yl)-2-((tetrahydro-2H-pyran-4-yl)oxy)benzonitrile]
25 | 34.7 nM | 19.3 nM | N#Cc1cc(-c2ccnc3[nH]c(-c4cc[nH]c(=O)c4)cc23)ccc1OC1CCOCC1 [Example 217, 5-(2-(2-oxo-1,2-dihydropyridin-4-yl)-1H-pyrrolo[2,3-b]pyridin-4-yl)-2-((tetrahydro-2H-pyran-4-yl)oxy)benzonitrile]
26 | 3.37 nM | 2.5 nM | CN1CCN(c2ccc(-c3cc4c(-c5ccc(OC6CCOCC6)c(C#N)c5)ncnc4[nH]3)cc2)CC1 [Example 219, 5-(6-(4-(4-methylpiperazin-1-yl)phenyl)-7H-pyrrolo[2,3-d]pyrimidin-4-yl)-2-((tetrahydro-2H-pyran-4-yl)oxy)benzonitrile]
27 | 1.48 nM | 0.503 nM | N#Cc1cc(-c2ncnc3[nH]c(-c4ccc(N5CCOCC5)cc4)cc23)ccc1OC1CCN(C(=O)CO)CC1 [Example 220, 2-((1-(2-hydroxyacetyl)piperidin-4-yl)oxy)-5-(6-(4-morpholinophenyl)-7H-pyrrolo[2,3-d]pyrimidin-4-yl)benzonitrile]
28 | 1.8 nM | 1.24 nM | N#Cc1cc(-c2ncnc3[nH]c(-c4ccc(OCCN5CCCC5)cc4)cc23)ccc1OC1CCOCC1 [Example 226, 5-(6-(4-(2-(pyrrolidin-1-yl)ethoxy)phenyl)-7H-pyrrolo[2,3-d]pyrimidin-4-yl)-2-((tetrahydro-2H-pyran-4-yl)oxy)benzonitrile]
29 | 70.2 nM | 42.4 nM | N#Cc1cc(-c2ncnc3[nH]c(-c4ccc(OCCN5CCCC5)cc4)cc23)ccc1N1CC(O)C1 [Example 227, 2-(3-hydroxyazetidin-1-yl)-5-(6-(4-(2-(pyrrolidin-1-yl)ethoxy)phenyl)-7H-pyrrolo[2,3-d]pyrimidin-4-yl)benzonitrile]
30 | 14.5 nM | 1.62 nM | CC(C)(O)c1ccc(-c2nc3c(-c4ccc(OC5CCOCC5)c(C#N)c4)ncnc3[nH]2)cc1 [Example 228, 5-(8-(4-(2-hydroxypropan-2-yl)phenyl)-9H-purin-6-yl)-2-((tetrahydro-2H-pyran-4-yl)oxy)benzonitrile]
31 | 0.851 nM | 1.01 nM | N#Cc1cc(-c2ncnc3[nH]c(-c4ccc(OCCN5CCCC5)cc4)cc23)ccc1OC1CCN(C(=O)CO)CC1 [Example 229, 2-((1-(2-hydroxyacetyl)piperidin-4-yl)oxy)-5-(6-(4-(2-(pyrrolidin-1-yl)ethoxy)phenyl)-7H-pyrrolo[2,3-d]pyrimidin-4-yl)benzonitrile]
